Laboratory results: US12319664B2, “Herbicidally active 3-phenylisoxazoline-5-carboxamides of cyclopentenylcarboxylic acid derivatives” (Bayer Aktiengesellschaft, priority 2018, dated 2025)

Experiments:
[1] = test system: ABUTH; assay: Post-emergence herbicidal action against ABUTH; format: in vivo, Abutilon theophrasti; conditions: application rate 80 g/ha, rated visually about 3 weeks after treatment
Description: (§1) [table] 2. Post-emergence herbicidal action against harmful plants and crop plant compatibility Seeds of monocotyledonous and dicotyledonous weeds and crop plants are placed in sandy loam in plastic or wood-fibre pots, covered with soil and cultivated in a greenhouse under controlled growth conditions. 2 to 3 weeks after sowing, the test plants are treated at the one-leaf stage. The compounds of the invention, formulated in the form of wettable powders (WP) or as emulsion concentrates (EC), are then sprayed onto the green parts of the plants as aqueous suspension or emulsion with addition of 0.5% additive at a water application rate of 600 l/ha (converted). After the test plants have been kept in the greenhouse under optimum growth conditions for about 3 weeks, the activity of the preparations is rated visually in comparison to untreated controls. For example, 100% activity=the plants have died, 0% activity=like control plants.

[2] = test system: VERPE; assay: Post-emergence herbicidal action against VERPE; format: in vivo, Veronica persica; conditions: application rate 80 g/ha
Description: as §1

[3] = test system: STEME; assay: Post-emergence herbicidal action against STEME; format: in vivo, Stellaria media; conditions: application rate 80 g/ha, rated visually about 3 weeks after treatment
Description: as §1

[4] = test system: AMARE; assay: Post-emergence herbicidal action against AMARE; format: in vivo, Amaranthus retroflexus; conditions: application rate 80 g/ha, rated visually about 3 weeks after treatment
Description: as §1

[5] = test system: LOLRI; assay: Post-emergence herbicidal action against LOLRI; format: in vivo, Lolium rigidum; conditions: application rate 80 g/ha, rated visually after about 3 weeks
Description: as §1

[6] = test system: POLCO; assay: Post-emergence herbicidal action against POLCO; format: in vivo, Polygonum convolvulus; conditions: application rate 80 g/ha, rated visually about 3 weeks after treatment
Description: as §1

[7] = test system: AVEFA; assay: Post-emergence herbicidal action against AVEFA; format: in vivo, Avena fatua; conditions: application rate 80 g/ha, rated visually after about 3 weeks
Description: as §1

[8] = test system: PHBPU; assay: Post-emergence herbicidal action against PHBPU; format: in vivo, Pharbitis purpurea; conditions: application rate 80 g/ha, rated visually about 3 weeks after treatment
Description: as §1

[9] = test system: HORMU; assay: Post-emergence herbicidal action against HORMU; format: in vivo, Hordeum murinum; conditions: application rate 80 g/ha
Description: as §1

[10] = test system: ECHCG; assay: Post-emergence herbicidal action against ECHCG; format: in vivo, Echinochloa crus-galli; conditions: application rate 80 g/ha, rated visually after about 3 weeks
Description: as §1

[11] = test system: ALOMY; assay: Post-emergence herbicidal action against ALOMY; format: in vivo, Alopecurus myosuroides; conditions: application rate 80 g/ha, rated visually after about 3 weeks
Description: as §1

[12] = test system: SETVI; assay: Post-emergence herbicidal action against SETVI; format: in vivo, Setaria viridis; conditions: application rate 80 g/ha, rated visually after about 3 weeks
Description: as §1

SMILES | Herbicidal action against [%] ABUTH [1] | Herbicidal action against [%] VERPE [2] | Herbicidal action against [%] STEME [3] | Herbicidal action against [%] AMARE [4] | Herbicidal action against [%] LOLRI [5] | Herbicidal action against [%] POLCO [6] | Herbicidal action against [%] AVEFA [7] | Herbicidal action against [%] PHBPU [8] | Herbicidal action against [%] HORMU [9] | Herbicidal action against [%] ECHCG [10] | Herbicidal action against [%] ALOMY [11] | Herbicidal action against [%] SETVI [12]
C=CC1(C(=O)NC2C=CC(C(=O)N3CCCO3)C2)CC(c2cc(F)cc(F)c2)=NO1 (centres unmarked) [II-28] | 90% | 90% | 90% | 80% | 90% | 80% | 80% | 90% | 80% | 90% | 100% | 80%
C=CC1(C(=O)NC2C=CC(C(=O)NS(=O)(=O)CC(=O)OC)C2)CC(c2cc(F)cc(F)c2)=NO1 (mixture of isomers) [II-18] | – | 80% | 80% | 80% | 80% | – | 100% | 80% | 90% | 80% | 100% | 90%
O=C(OCCCl)C1C=CC(NC(=O)C2(C(F)(F)F)CC(c3cccc(Cl)c3)=NO2)C1 (mixture of isomers) [Example I-045] | 80% | – | 80% | – | 80% | – | 90% | 80% | 90% | 80% | 100% | 80%
CC1(C(=O)N[C@H]2C=C[C@@H](C(=O)OCC(F)(F)F)C2)CC(c2cc(F)cc(F)c2)=NO1 (some centres unmarked) [Example I-010] | 80% | 90% | 80% | 90% | 90% | 90% | 90% | 90% | 90% | 90% | 90% | 90%
C=CC1(C(=O)N[C@H]2CC=C(C(=O)OC(C)C)C2)CC(c2cc(F)cc(F)c2)=NO1 (some centres unmarked) [III-13] | 80% | 80% | 90% | 90% | 100% | 80% | 90% | 90% | 90% | 90% | 90% | 80%
COc1cc(OC)cc(C2=NOC(C(=O)NC3C=CC(C(=O)OCCCl)C3)(C(F)(F)F)C2)c1 (mixture of isomers) [Example I-044] | 90% | – | – | 80% | – | – | 80% | 80% | 100% | 90% | – | –
CC(C)(C)OC(=O)[C@@H]1C=C[C@H](NC(=O)C2(C)CC(c3cc(F)cc(F)c3)=NO2)C1 (some centres unmarked) [Example I-007] | 80% | 90% | 90% | – | 90% | 80% | 90% | 90% | 90% | 90% | 90% | 90%
C=C[C@]1(C(=O)N[C@H]2C=C[C@H](C(=O)OC)C2)CC(c2cc(F)cc(F)c2)=NO1 [Example I-054] | – | 90% | 80% | 80% | 100% | 80% | 100% | 80% | 90% | 90% | 90% | 80%
O=C(OCC(F)(F)F)C1C=CC(NC(=O)C2(C(F)(F)F)CC(c3cccc(Cl)c3)=NO2)C1 (mixture of isomers) [Example I-051] | 80% | 80% | 90% | – | 90% | – | 90% | 80% | 90% | 80% | 100% | –
CC(C)(C)OC(=O)[C@@H]1C=C[C@H](NC(=O)C2(C)CC(c3cccc(C#N)c3)=NO2)C1 (some centres unmarked) [Example I-095] | – | 80% | – | – | – | 90% | – | 90% | – | – | 90% | –
CC1(C(=O)NC2C=CC(C(=O)NC(C)(C)C(F)(F)F)C2)CC(c2cc(F)cc(F)c2)=NO1 (mixture of isomers) [II-08] | – | 80% | 90% | – | – | – | – | 90% | – | – | 80% | –
COC(=O)[C@@H]1C=C[C@H](NC(=O)C2(C(F)(F)F)CC(c3ccccc3)=NO2)C1 (some centres unmarked) [Example I-026] | – | 80% | 80% | 90% | 90% | 80% | 100% | 80% | 90% | 80% | 100% | 90%
Cc1cc(C2=NOC(C(=O)NC3C=CC(C(=O)OCCCl)C3)(C(F)(F)F)C2)cc(C(F)(F)F)c1 (mixture of isomers) [Example I-049] | – | 80% | – | 90% | 90% | – | 90% | 90% | 90% | – | 90% | –
O=C(OCC(F)(F)F)[C@@H]1C=C[C@H](NC(=O)C2(C(F)(F)F)CC(c3ccccc3)=NO2)C1 (some centres unmarked) [Example I-030] | – | 80% | – | 90% | 100% | 90% | 100% | 80% | 90% | 80% | 90% | 90%
